# In article PMC6338644 (The FASEB Journal, 2018):
# Counter-ions that a name gives are not always drawn.
# Assays:
# [1] = target: T1, SHIP2 immunoprecipitated from the lysates of hepatoma cells (Rattus norvegicus, UniProt Q9WVR3); experiment: Activity of SHIP2 immunoprecipitated from hepatoma cells; assay type: cell-based; settings: 10 µM, 20–24 h
# T1 construct: endogenous in cells; host or cells: Fao hepatoma cells
# T1 sequence (Q9WVR3 1-1257): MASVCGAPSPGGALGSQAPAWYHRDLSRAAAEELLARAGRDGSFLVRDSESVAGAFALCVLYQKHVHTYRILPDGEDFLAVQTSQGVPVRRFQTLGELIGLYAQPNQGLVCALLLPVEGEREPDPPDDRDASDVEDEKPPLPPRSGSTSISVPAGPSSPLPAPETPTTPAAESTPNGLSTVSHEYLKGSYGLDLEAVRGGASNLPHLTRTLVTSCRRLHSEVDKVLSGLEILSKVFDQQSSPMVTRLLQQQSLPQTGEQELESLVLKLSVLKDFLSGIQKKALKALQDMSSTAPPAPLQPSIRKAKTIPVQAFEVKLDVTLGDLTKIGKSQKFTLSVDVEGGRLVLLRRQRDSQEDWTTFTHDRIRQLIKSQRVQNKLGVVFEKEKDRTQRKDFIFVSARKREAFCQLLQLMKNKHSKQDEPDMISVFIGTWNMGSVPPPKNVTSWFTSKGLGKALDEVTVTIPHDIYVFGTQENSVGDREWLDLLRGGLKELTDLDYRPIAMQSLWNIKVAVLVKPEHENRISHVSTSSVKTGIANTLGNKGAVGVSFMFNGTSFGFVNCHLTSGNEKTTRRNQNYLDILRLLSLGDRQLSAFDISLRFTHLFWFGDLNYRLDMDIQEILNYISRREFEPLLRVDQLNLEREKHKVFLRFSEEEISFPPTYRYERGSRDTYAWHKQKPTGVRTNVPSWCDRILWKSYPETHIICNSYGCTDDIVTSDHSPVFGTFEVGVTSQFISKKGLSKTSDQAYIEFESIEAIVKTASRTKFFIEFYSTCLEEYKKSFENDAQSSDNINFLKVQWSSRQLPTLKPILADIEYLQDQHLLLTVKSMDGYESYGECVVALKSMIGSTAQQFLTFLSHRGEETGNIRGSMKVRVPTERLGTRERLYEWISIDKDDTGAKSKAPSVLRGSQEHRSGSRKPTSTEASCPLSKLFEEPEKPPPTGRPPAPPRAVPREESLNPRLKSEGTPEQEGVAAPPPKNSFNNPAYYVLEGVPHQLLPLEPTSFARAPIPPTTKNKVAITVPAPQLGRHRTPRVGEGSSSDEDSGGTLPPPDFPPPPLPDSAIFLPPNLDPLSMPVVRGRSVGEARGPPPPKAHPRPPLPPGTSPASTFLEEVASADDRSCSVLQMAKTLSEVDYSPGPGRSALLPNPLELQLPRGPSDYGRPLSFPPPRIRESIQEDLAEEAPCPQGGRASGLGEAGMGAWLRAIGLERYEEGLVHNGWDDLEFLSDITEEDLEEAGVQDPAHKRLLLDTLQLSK
# Experimental: (§4) Immunocomplexes were bound to protein G-Sepharose beads at +4°C for 2 h and washed 3 times with malachite green phosphate assay buffer {10 mM 4-(2-hydroxyethyl)-1-piperazineethanesulfonic acid (HEPES), pH 7.25, 6 mM MgCl2, 0.1% 3-[(3-cholamidopropyl)dimethylammonio]-1-propanesulfonate (CHAPS), 250 mM sucrose, and 0.25 mM EDTA}.
# The catalytic activity of SHIP2 immunoprecipitated from cell and tissue lysates was determined as in Saurus et al. ([22]), omitting SHIP2 inhibitors in lysis buffer, immunoprecipitation reaction, wash, and assay buffers.
# db/db mice = settings: cited from earlier work
# PCK1 and G6Pase mRNA = experiment: Quantitative RT-PCR of gluconeogenesis genes in db/db mice; assay type: in vivo, mouse; settings: 250 mg/kg per day, 12 d
# Excerpt: At the end of the experiment, mice were euthanized. […]
# The expression levels of the rate-
# analyzed by quantitative RT-PCR (n=6).
# internal controls for liver and kidney, respectively. The bars show the mean expres sion in arbitrary
# [2] = target: T2, purified His-tagged SHIP2 phosphatase domain (Homo sapiens, UniProt O15357); experiment: Manual malachite green phosphate assay (96-well), purified SHIP2 phosphatase domain; assay type: biochemical; settings: 10 µM; 100 ng enzyme; manual assay (Fig. 1B)
# T2 construct: we produced a His-tagged human SHIP2 phosphatase domain; His; made in house
# T2 sequence (O15357 419-732 limits assumed): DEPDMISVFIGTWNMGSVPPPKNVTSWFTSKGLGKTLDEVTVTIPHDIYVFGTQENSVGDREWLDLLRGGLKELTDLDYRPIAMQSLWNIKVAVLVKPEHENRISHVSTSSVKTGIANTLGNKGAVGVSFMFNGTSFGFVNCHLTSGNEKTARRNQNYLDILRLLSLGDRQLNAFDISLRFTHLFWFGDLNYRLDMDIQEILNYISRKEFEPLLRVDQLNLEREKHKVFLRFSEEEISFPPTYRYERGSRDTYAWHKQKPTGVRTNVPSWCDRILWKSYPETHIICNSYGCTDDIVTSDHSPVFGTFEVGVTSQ
# Experimental: as §4
# The catalytic activities of the recombinant SHIP2 and SHIP1 phosphatase domains were determined by malachite green phosphate assay at the High Throughput Biomedicine Unit (University of Helsinki) using D-myo-PI(3,4,5)P3 (Echelon Biosciences, Salt Lake City, UT, USA). Different volumes, resulting in desired final concentrations of inhibitors, were transferred to the wells of 384-well plates by using the Echo550 acoustic dispenser (Labcyte, San Jose, CA, USA). Recombinant protein (100 ng) in reaction buffer {10 mM HEPES, pH 7.25, 6 mM MgCl2, 0.1% CHAPS, 250 mM sucrose, and 0.25 mM EDTA} was placed in each well (7.5 µl), and the plates were preincubated at room temperature for 15 min. The phosphatase reaction was started by adding PI(3,4,5)P3 diluted in the reaction buffer (7.5 µl) to each well to reach a final concentration of 100 µM PI(3,4,5)P3 in the 15 µl reaction volume. […] Absorbance was measured at 620 nm using a Pherastar FS plate reader (BMG Labtech, Offenburg, Germany). […]
# The catalytic activity of SHIP2 was measured by manual malachite green phosphate assay. […]
# [3] = tested on: GLUT1 and GLUT4 protein expression; experiment: Immunoblot of GLUT1 and GLUT4 expression in myotubes and podocytes; assay type: cell-based, rat, human; settings: 2 mM, 20–24 h
# Excerpt: Rat L6 myoblasts (American Type Culture Collection, Manassas, VA, USA) and hepatoma cells (Fao Cells, Culture Collection; Public Health England, Salisbury, United Kingdom) were maintained according to the provider’s instructions. L6 myoblasts stably expressing hemagglutinin-GLUT4-green fluorescent protein (HA-GLUT4-GFP, referred to as L6-GLUT4) were generated, as previously described ([19]). Immortalized human podocytes were maintained as previously described ([10]). Lentiviral infection was used to overexpress or knock down transiently SHIP2 in cultured cells on d 10–12 of differentiation for 48 h (basal level) or 72 h (insulin stimulation), as previously described ([10], [20]). Human pLKO1-short hairpin RNA (shRNA) SHIP2 ([sequence]) was obtained from Functional Genomics Unit, University of Helsinki. […] Podocytes were lysed as previously described ([21]). Myotubes, hepatoma cells, and tissues were lysed and immunoblotting performed as in Tolvanen et al. ([19]) with anti-SHIP2 and anti-AMPK (Santa Cruz Biotechnology, Dallas, TX, USA); anti-phospho (p)Akt (S473), anti-pAMPK (Thr172), anti-AMPK, and anti-cleaved caspase-3 (Cell Signaling Technology, Danvers, MA, USA); anti-Pan Akt (R&D Systems, Minneapolis, MN, USA); anti-tubulin, anti-Glut4, and anti-Glut1 (MilliporeSigma, Burlington, MA, USA); and anti-actin (Abcam, Cambridge, United Kingdom).
# [4] = tested on: SHIP2-overexpressing podocytes; experiment: Apoptosis of SHIP2-overexpressing podocytes (cleaved caspase-3 immunoblot, Annexin V flow cytometry); assay type: cell-based, human; settings: 2 mM, 48 h
# Experimental: Immortalized human podocytes were maintained as previously described ([10]). Lentiviral infection was used to overexpress or knock down transiently SHIP2 in cultured cells on d 10–12 of differentiation for 48 h (basal level) or 72 h (insulin stimulation), as previously described ([10], [20]). […] Apoptosis was measured by flow cytometry using the Annexin V-FITC Apoptosis Kit (Becton Dickinson, Franklin Lakes, NJ, USA) and double staining with 7-aminoactinomycin D (Becton Dickinson), as previously described ([10]). Podocytes were lysed as previously described ([21]). Myotubes, hepatoma cells, and tissues were lysed and immunoblotting performed as in Tolvanen et al. ([19]) with anti-SHIP2 and anti-AMPK (Santa Cruz Biotechnology, Dallas, TX, USA); anti-phospho (p)Akt (S473), anti-pAMPK (Thr172), anti-AMPK, and anti-cleaved caspase-3 (Cell Signaling Technology, Danvers, MA, USA); anti-Pan Akt (R&D Systems, Minneapolis, MN, USA); anti-tubulin, anti-Glut4, and anti-Glut1 (MilliporeSigma, Burlington, MA, USA); and anti-actin (Abcam, Cambridge, United Kingdom).
# Cell lysates were subjected to immunoblot analysis with anti-SHIP2, anti-cleaved caspase-3, and anti-actin IgGs. […] B, C) Quantification of SHIP2 and cleaved caspase-3 levels in A, normalized to actin. […] Apoptosis was measured by flow cytometry using Annexin V-FITC and 7-aminoactinomycin D (7AAD) double staining. […]
# L6-GLUT4 myotubes = experiment: Glucose uptake assay in L6-GLUT4 myotubes; assay type: cell-based, rat; settings: metformin 2 mM
# Experimental: (§1) Immortalized human podocytes were maintained as previously described ([10]). […] Podocytes were lysed as previously described ([21]).
# (§2) Glucose uptake assay and On-Cell Western were performed essentially as in Tolvanen et al. ([19]). […] Cells were transferred on ice; incubated with anti-HA IgG in serum-free medium for 15 min, followed by additional incubation in fresh cell differentiation medium for 15 min at +37°C; and fixed with 2% paraformaldehyde for 20 min. Cells were incubated with IRDye 800 donkey anti-mouse IgG and nuclear marker DRAQ-5 (Thermo Fisher Scientific). Detection and quantitation were performed with the Odyssey Infrared Imager (Li-Cor Biosciences, Lincoln, NE, USA).
# (§3) L6-GLUT4 myotubes overexpressing SHIP2 were treated and glucose uptake performed as described in C. […] Time point 15 min indicates the amount of HA detected on the cells after 15 min internalization.
# [5] = tested on: HA-GLUT4-GFP at the plasma membrane of L6-GLUT4 cells; experiment: On-Cell Western and HA-GLUT4-GFP endocytosis assay in L6-GLUT4 cells; assay type: cell-based, rat; settings: 20–24 h
# Experimental: as §2
# C) Knockdown of SHIP2 reduces metformin-induced glucose uptake. […] L6-GLUT4 myotubes overexpressing SHIP2 were treated and glucose uptake performed as described in C. […] Time point 15 min indicates the amount of HA detected on the cells after 15 min internalization.
# [6] = tested on: Immortalized human podocytes; experiment: Glucose uptake assay in podocytes; assay type: cell-based
# Experimental: as §1, §2, §3
# [7] = 20–24 h, insulin 100 nM, 15 min
compound,measurement,setting,value
C[C@H](NC(=O)c1sccc1OCc1ccc(Cl)cc1)c1ccccc1 [AS1949490],inhibition of SHIP2 in hepatoma cells,[1],did not inhibit
same,PCK1 expression in db/db mice,db/db mice,reduce
same,blood glucose in db/db mice,db/db mice; short-term treatment,reduced
same,insulin sensitivity in db/db mice,db/db mice; short-term treatment,improved
"CN(C)C(=N)N=C(N)N [Metformin, 1,1-Dimethylbiguanide hydrochloride]",G6Pase mRNA level in kidney,PCK1 and G6Pase mRNA,increased
same,G6Pase mRNA level in liver,PCK1 and G6Pase mRNA,decreased
same,PCK1 mRNA level in kidney,PCK1 and G6Pase mRNA,increased
same,PCK1 mRNA level in liver,PCK1 and G6Pase mRNA,decreased
same,reduction of catalytic activity of recombinant SHIP2 phosphatase domain,[2],44%
same,effect on GLUT1 and GLUT4 protein expression levels,[3],no effect
same,cleaved caspase-3 level in SHIP2-overexpressing podocytes,[4],back to the level in the control
same,"level of apoptosis (Annexin V, flow cytometry) in SHIP2-overexpressing podocytes",[4],back to the level of the control
same,"increase in insulin-stimulated glucose uptake, SHIP2 knockdown","L6-GLUT4 myotubes; SHIP2 shRNA, 20–24 h, insulin 100 nM, 15 min",109%
same,increase in glucose uptake in L6-GLUT4 myotubes,"L6-GLUT4 myotubes; control shRNA, 20–24 h, insulin 100 nM, 15 min",148%
same,increase in glucose uptake in empty vector-transfected myotubes,L6-GLUT4 myotubes; [7],155%
same,"increase in insulin-stimulated glucose uptake, SHIP2 overexpression",L6-GLUT4 myotubes; [7],76%
same,increase in glucose uptake in L6-GLUT4 cells,"L6-GLUT4 myotubes; 20–24 h, serum-starved",218%
same,"glucose uptake in L6-GLUT4 cells, metformin together with insulin","L6-GLUT4 myotubes; 20–24 h plus insulin 100 nM, 15 min",did not have an additive effect
same,increase in amount of HA-GLUT4-GFP on the PM,"[5]; L6-GLUT4 cells, basal conditions, 2 mM",40%
same,decrease in amount of HA-GLUT4-GFP on the PM after 15 min uptake (endocytosis),[5]; metformin 2 mM,10%
same,increase in glucose uptake in podocytes,[6],52%
same,"increase in glucose uptake in podocytes, metformin together with insulin",[6],80%
